The test system of one test is Eco. The format is cell-based, Escherichia coli.
Another test has as its system Rs. The format is cell-based, Ralstonia solanacearum. Particulars: crude peptide, 5 μl of 64 μg/ml in 20 μl, bacteria OD600=0.4 in water, 2 h, confocal microscopy.
The test system of test [1] is Pectobacterium carotovorum subsp. carotovorum (Pcc). Kind of test: Plant disease response, Pcc infection of tomato L390 leaves. The format is in vivo, Solanum lycopersicum. Particulars: crude peptide 16 μg/ml mixed with Pcc, detached wounded tomato L390 leaves, 16–28 h post-inoculation, vs water.
Test [2] shares this test system. The test can be described thus: Plant disease response, Pcc infection of Arabidopsis Col0 leaves. The format is in vivo, Arabidopsis thaliana. Particulars: crude peptide 16 μg/ml mixed with Pcc, wounded leaves of Arabidopsis Col0, 16–28 h post-inoculation, vs water.
For test [3], the system named is Botrytis cinerea (Bc). Kind of test: Plant disease response, Bc infection of tomato L390 leaves. The format is in vivo, Solanum lycopersicum. Particulars: crude peptide 16 μg/ml mixed with Bc spores (10^4 spores/ml), 47–70 h post-inoculation, vs water.
Test [4] relates to Botrytis cinerea (Bc). Kind of test: Plant disease response, Bc infection of Arabidopsis Col0 leaves. Particulars: crude peptide 16 μg/ml mixed with Bc spores (10^5 spores/ml), Arabidopsis Col0 leaves, 47–70 h post-inoculation, vs water. The format is in vivo, Arabidopsis thaliana.
A further test relates to Pcc. Particulars: up to 32 μg/ml.
The next test concerns Ech. Particulars: up to 32 μg/ml.
In another test the test system is Rs Pss4. Particulars: Table 5, minimal medium, crude peptides, up to 32 μg/ml; for MIC: 96 h; for MBC/MFC: spotted on rich agar 48 h.
Another test concerns Rs Pss190. Particulars: Table 5, minimal medium, crude peptides, up to 32 μg/ml; for MIC: 96 h; for MBC/MFC: spotted on rich agar 48 h.
The subject of the next test is Bc. Particulars: up to 32 μg/ml; for MIC: spores, 96 h; for MBC/MFC / MFC: spotted on PD plate 24~72 h.
The test system of the next test is Cgl FST02. Particulars: up to 32 μg/ml; for MIC: spores, 96 h; for MBC/MFC / MFC: spotted on PD plate 24~72 h.
Test [5] concerns Eco DH5α. Particulars: 48 h.
The subject of test [6] is Eco DH5α. Particulars: DH5α, 24 h.
The next test concerns Xev Xvt28. Particulars: 24 h.
Where [7] appears, read: Table 5, minimal medium, crude peptides, 96 h.
Where [8] appears, read: Table 5, minimal medium, crude peptides, spotted on rich agar 48 h.
[9] abbreviates: Table 5, minimal (CD) medium, crude peptides.
Setting [10] is: Table 7, rich media, spotted on rich agar 48 h.

≈ marks a conversion by molar mass, not a printed value. Read-outs that look alike come from different tables or passages of the source. Where a SMILES comes first, the peptide text is derived from it. The star is where a group is joined. Palmitoyl = CCCCCCCCCCCCCCCC(=O)*; Myristoyl = CCCCCCCCCCCCCC(=O)*

As for `CCCCCCCCCCCCCC(=O)N[C@@H](Cc1c[nH]c2ccccc12)C(=O)N[C@@H](CCCCN)C(=O)N[C@@H](CCCCN)C(=O)N[C@@H](CC(C)C)C(=O)N[C@@H](CCCCN)C(=O)N[C@@H](CCCCN)C(=O)N[C@@H](CC(C)C)C(=O)N[C@@H](CC(C)C)C(=O)N[C@@H](CCCCN)C(=O)N[C@@H](CCCCN)C(=O)N[C@@H](CC(C)C)C(=O)N[C@@H](CCCCN)C(=O)N[C@@H](CCCCN)C(=O)N[C@@H](CC(C)C)C(N)=O` [pepD2M] (Myristoyl-WKKLKKLLKKLKKL-NH2), the “membranolytic effect (SYTOX Green staining)” value with Eco and in the test on Rs was “significant membranolytic effect” throughout. The “size of disease lesions caused by Pcc, tomato” value in [1] is on record as “significantly reduced the sizes of the disease lesions”. For the same compound, the “size of disease lesions caused by Pcc, Arabidopsis” value in [2] was “significantly reduced the sizes of the disease lesions”. In addition, the “development of the lesion caused by Bc, tomato” value with Botrytis cinerea (Bc) [3] is “decreased the development of the lesion”. Besides, in the test on Botrytis cinerea (Bc) [4], the “development of the lesion caused by Bc, Arabidopsis” value was “decreased the development of the lesion”. Further, the minimal inhibitory concentration (MIC) is 4 µg/mL (≈ 2 µM) in the test on Pcc (setting [7]); 4 µg/mL (≈ 2 µM) with Ech (setting [7]); 8 µg/mL (≈ 3.99 µM) in the test on Rs Pss4; 8 µg/mL (≈ 3.99 µM) against Rs Pss190; 16 µg/mL (≈ 7.98 µM) against Bc (setting [9]); 16 µg/mL (≈ 7.98 µM) with Bc (Table 6, minimal media). The MIC is 8 µg/mL (≈ 3.99 µM) in the test with Cgl FST02 (setting [9]) and 16 µg/mL (≈ 7.98 µM) against Cgl FST02 (Table 6, minimal media). Besides, the MBC/MFC in the test with Pcc (setting [8]) amounted to 4 µg/mL (≈ 2 µM); with Ech (setting [8]), 8 µg/mL (≈ 3.99 µM); in the test on Rs Pss4, 8 µg/mL (≈ 3.99 µM); against Rs Pss190 it was 8 µg/mL (≈ 3.99 µM); in the test on Bc (setting [9]), 16 µg/mL (≈ 7.98 µM); against Cgl FST02 (setting [9]), 16 µg/mL (≈ 7.98 µM). Further, the MFC was 32 µg/mL (≈ 16 µM) in the test on Bc (Table 6, minimal media) and 16 µg/mL (≈ 7.98 µM) against Cgl FST02 (Table 6, minimal media).

Take `CCCCCCCCCCCCCCCC(=O)N[C@@H](Cc1c[nH]c2ccccc12)C(=O)N[C@@H](CCCCN)C(=O)N[C@@H](CCCCN)C(=O)N[C@@H](CC(C)C)C(=O)N[C@@H](CCCCN)C(=O)N[C@@H](CCCCN)C(=O)N[C@@H](CC(C)C)C(=O)N[C@@H](CC(C)C)C(=O)N[C@@H](CCCCN)C(=O)N[C@@H](CCCCN)C(=O)N[C@@H](CC(C)C)C(=O)N[C@@H](CCCCN)C(=O)N[C@@H](CCCCN)C(=O)N[C@@H](CC(C)C)C(N)=O` [pepD2P] (Palmitoyl-WKKLKKLLKKLKKL-NH2): in the test on Bc (Table 6, minimal media), the minimum inhibitory concentration (MIC) is 8 µg/mL (≈ 3.94 µM) and the MFC is 8 µg/mL (≈ 3.94 µM). In the test with Cgl FST02 (Table 6, minimal media), this compound came in with a minimal inhibitory concentration (MIC) of 8 µg/mL (≈ 3.94 µM) and an MFC of 8 µg/mL (≈ 3.94 µM).

Regarding Stearyl-WKKLKKLLKKLKKL-NH2 [pepD2S], the MIC result is listed as “– (“–” indicates that no antimicrobial activity was detected in minimal media at the highest peptide concentration (32μg/ml) that was tested in this study.)” in the test with Bc (Table 6, minimal media) and “– (“–” indicates that no antimicrobial activity was detected in minimal media at the highest peptide concentration (32μg/ml) that was tested in this study.)” against Cgl FST02 (Table 6, minimal media). Moreover, the MFC result in the test on Bc (Table 6, minimal media) is recorded as “– (“–” indicates that no antimicrobial activity was detected in minimal media at the highest peptide concentration (32μg/ml) that was tested in this study.)”; with Cgl FST02 (Table 6, minimal media), “– (“–” indicates that no antimicrobial activity was detected in minimal media at the highest peptide concentration (32μg/ml) that was tested in this study.)”.

Ac-WKKVKKVVKKVKKV-NH2 [pepV2]: the figures for the minimum bactericidal concentration (MBC) against Eco DH5α [5], against Pcc (setting [10]) and with Ech (setting [10]) were 32 µg/mL, “– (“–” indicates that no antimicrobial activity was detected in rich media at the highest peptide concentration (32μg/ml) that was tested in this study.)” and “– (“–” indicates that no antimicrobial activity was detected in rich media at the highest peptide concentration (32μg/ml) that was tested in this study.)”, respectively. In addition, the MIC is 32 µg/mL in the test on Eco DH5α [5]; “– (“–” indicates that no antimicrobial activity was detected in rich media at the highest peptide concentration (32μg/ml) that was tested in this study.)” against Pcc (Table 7, rich media, 48 h); “– (“–” indicates that no antimicrobial activity was detected in rich media at the highest peptide concentration (32μg/ml) that was tested in this study.)” with Ech (Table 7, rich media, 48 h).

As to Ac-WKLKLKLKLKLKLKLKLK-NH2 [pepE], the results for the concentration for half-maximal inhibition (IC50) with Eco DH5α [6] and with Xev Xvt28 were 10 µg/mL and 2 µg/mL, respectively.

As for Ac-WKLLKKLLKKLKKLLKKL-NH2 [pepC], the half-inhibitory concentration (IC50) in the test with Eco DH5α [6] and in the test on Xev Xvt28 was 10 µg/mL in each case.

Regarding `CCCCCCCCCCCCCC(=O)N[C@@H](Cc1c[nH]c2ccccc12)C(=O)N[C@@H](CCCCN)C(=O)N[C@@H](CCCCN)C(=O)N[C@@H](CC(C)C)C(=O)N[C@@H](CCCCN)C(=O)N[C@@H](CCCCN)C(=O)N[C@@H](CC(C)C)C(=O)N[C@@H](CC(C)C)C(=O)N[C@@H](CCCCN)C(=O)N[C@@H](CCCCN)C(=O)N[C@@H](CC(C)C)C(N)=O` [pepD3M] (Myristoyl-WKKLKKLLKKL-NH2), the “size of disease lesions caused by Pcc, tomato” value in test [1] is recorded as “significantly reduced the sizes of the disease lesions”. Moreover, the “size of disease lesions caused by Pcc, Arabidopsis” value in [2] is on record as “significantly reduced the sizes of the disease lesions”. Moreover, in the test with Botrytis cinerea (Bc) [3], the “development of the lesion caused by Bc, tomato” value is “decreased the development of the lesion”. The “development of the lesion caused by Bc, Arabidopsis” value in the test on Botrytis cinerea (Bc) [4] is “decreased the development of the lesion”. Besides, the minimum inhibitory concentration (MIC) with Pcc (setting [7]) stood at 4 µg/mL (≈ 2.45 µM); in the test on Ech (setting [7]), 4 µg/mL (≈ 2.45 µM); against Rs Pss4, 8 µg/mL (≈ 4.89 µM); in the test with Rs Pss190, 16 µg/mL (≈ 9.78 µM); in the test with Bc (setting [9]), 4 µg/mL (≈ 2.45 µM); against Cgl FST02 (setting [9]), 8 µg/mL (≈ 4.89 µM). For the same compound, the MBC/MFC with Pcc (setting [8]) was determined as 4 µg/mL (≈ 2.45 µM); with Ech (setting [8]), 8 µg/mL (≈ 4.89 µM); in the test with Rs Pss4, 16 µg/mL (≈ 9.78 µM); against Rs Pss190, 16 µg/mL (≈ 9.78 µM); against Bc (setting [9]) it was 8 µg/mL (≈ 4.89 µM); against Cgl FST02 (setting [9]), 8 µg/mL (≈ 4.89 µM).

Ac-WKKIKKIIKKIKKI-NH2 [pepI2]: in the test with Eco DH5α [5], the MBC was determined as 4 µg/mL and the MIC was determined as 4 µg/mL.
